Values of other authors in publication PMC9811530 (Experimental and Clinical Endocrinology & Diabetes, 2022).
Like-named read-outs stand apart in the source and are kept apart here.

Assays:
11beta-HSD1 in AT = settings: single dose, 24 h after dosing; cited from earlier work
11beta-HSD1 in the liver = 11beta-HSD1 in the liver (Homo sapiens, UniProt P28845); settings: cited from earlier work
Chain of 11beta-HSD1 in the liver (P28845 whole entry): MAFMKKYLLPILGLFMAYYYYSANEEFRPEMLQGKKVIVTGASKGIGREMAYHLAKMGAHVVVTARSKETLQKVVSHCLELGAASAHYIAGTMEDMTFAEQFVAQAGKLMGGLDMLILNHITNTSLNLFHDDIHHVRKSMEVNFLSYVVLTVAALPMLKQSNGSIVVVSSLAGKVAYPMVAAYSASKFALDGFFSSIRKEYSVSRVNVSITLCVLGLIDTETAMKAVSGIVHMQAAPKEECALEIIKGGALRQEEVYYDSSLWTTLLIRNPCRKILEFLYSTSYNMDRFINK

## CC(C)[C@]1(C)SC(=N[C@H]2C[C@@H]3CC[C@H]2C3)NC1=O [AMG 221]
11beta-HSD1 in AT
  11beta-HSD1 inhibition in AT: > 90%

## CCCSc1nc(N2CCC[C@@H](CC(=O)O)C2)ccc1C(=O)NC1CCCCC1 [AZD4017]
11beta-HSD1 in the liver; after 9 days
  maximum decrease of the (aTHF+THF)/THE ratio: 92%

## C[C@@H](c1ccc(-c2ccn(C)c(=O)c2)cc1)N1CC[C@](CC(C)(C)O)(c2ccccc2)OC1=O [BI 135585]
11beta-HSD1 in AT
  inhibition of 11beta-HSD1 in AT: 90%

## N#Cc1ccc(-c2ccc(S(=O)(=O)Nc3cccc(N)n3)cc2)cc1 [PF-915275]
11beta-HSD1 in the liver; after 14 days of treatment
  maximum decrease of the (aTHF+THF)/THE ratio: 26%
